Results published in patent publication US8193238B2, “Inhibition of microtubule protrusion in cancer cells” (University of Maryland, Baltimore, priority 2006, dated 2012).
“Also recorded” adds a separate entry of the source.

Key:
[1] = tested on: detached mammary epithelial cells; assay: Protrusions of detached mammary epithelial cells, general statements; format: cell-based, human and mouse
Method: Time-lapse video microscopy of detached mammary epithelial cells detected the extension of long, dynamic protrusions of the plasma membrane, and the present inventors have characterized the cytoskeletal mechanism underlying this novel observation. […] This response may be relatively short-lived, in specific embodiments, since mammary epithelial cells die by apoptosis within about 24 hours in suspension. However, cell lines that resist apoptosis through expression of either Bcl-2 or Bcl-xL will persistently form protrusions. Previous studies by the inventors indicate that such apoptotically-resistant cell lines will not form tumors in mice and lie dormant in distant tissues, in specific embodiments of the invention. […] These microtubule processes can extend more than 3 times the cell diameter, and undergo a rapid probing motion more than once per second. Formation of these microtubule protrusions is necessary for efficient cell-cell and cell-substratum attachment. In particular embodiments of the invention, this inherent microtubule response in detached mammary epithelial cells provides at least some of the invasive characteristics of breast cancer, independent of any tumor-specific genetic alteration, for example.
Breast tumor cells enter the bloodstream long before the development of clinically evident metastasis. However, the early presence of such bloodborne cells predicts poor patient outcome. Nearly 90% of human breast tumors arise as carcinomas from mammary epithelial cells, so it is important to characterize how these cells respond to the detached conditions that they would experience in the bloodstream. In the present invention, mammary epithelial cell lines produce long and dynamic protrusions of the plasma membrane when detached. Although human and mouse mammary epithelial cell lines die by apoptosis within 16 hours of detachment, this protrusive response persists for days in cells overexpressing either Bcl-2 or Bcl-xL, for example. […] Since bloodborne metastasis depends on both cell-cell and cell-matrix attachment, microtubule-based protrusions in detached mammary epithelial cells provide a novel target that could influence the metastatic spread of breast tumors.
Detachment-induced increases in Glu-tubulin could promote plasma membrane protrusions of microtubules by preventing efficient capture at the actin cortex. […] Therefore, our current model is that detachment increases stabilized microtubules enriched in Glu-tubulin, while decreased actin polymerization simply promotes extension of these microtubule protrusions.

[2] = tested on: Glu-tubulin; assay: Western blotting of modified tubulin isoforms in attached or suspended cells; format: cell-based, mouse; conditions: for cellular levels of Glu-tubulin: EpH4-Bcl2, attached or detached, LA 5 μM
Method: EpH4-Bcl2 cells were grown attached to tissue culture dishes or suspended over agarose for the indicated times in either the absence or presence of LA (5 μM). In FIG. 5A, cell lysates were immunoblotted to detect levels of modified tubulin isoforms in the cell populations. In FIG. 5B, modified α-tubulin isoforms were normalized to total α-tubulin and then compared relative to the levels in attached cells at time zero. Bars represent the mean+S.E.M. of four independent experiments. […] Differences in Glu-tubulin upon detachment were also statistically-significant when compared to matched controls at time zero or one hour (black asterisks).
Whole cell lysates were prepared from EpH4 cells that were scraped or suspended in the presence or absence of 5 μM Latrunculin-A. Cells were pelleted at 3000 rpm×5 min and resuspended in lysis buffer (2% SDS, 100 mM Tris-HCl (pH 6.8), 20% Glycerol, 20 mM DTT, 1 mM phenylmethylsulfonyl fluoride, 1% protease inhibitor cocktail (Sigma, P2714)), and then immediately boiled for 10 min. Protein concentration was measured using a Lowry based assay (Bio-Rad, Hercules, Calif.). The amount of 17.5 μg of protein from each sample was separated by SDS-PAGE on 10% polyacrylamide gels and then transferred to Immuno-Blot PVDF membranes (Bio-Rad, Hercules, Calif.). The membrane was blocked in 2% milk in TBS with 0.1% Tween for 1 hr at room temperature followed by an overnight incubation at 4° C. in monoclonal α-tubulin (1:1000), tyrosinated tubulin (1:1000), acetylated tubulin (1:1000), and polyclonal detyrosinated tubulin (1:1000) in 1% milk in TBST. Secondary antibodies to IgG conjugated to horseradish peroxidase were used (1:5000; GE Healthcare, Piscataway, N.J.) and visualized using ECL chemiluminescent detection kit.
Immediately following detachment, levels of Glu-tubulin increase and remain elevated for at least 2 hours. […] The increased length and number of protrusions in response to LA may therefore reflect a decrease in an actin-dependent counteracting force, rather than a direct induction of protrusions.

[3] = tested on: EpH4-Bcl2 cells; assay: Cell-substratum attachment assay; format: cell-based, mouse
Method: In FIG. 6A, EpH4-Bcl2 cells were suspended over agarose and treated with inhibitors as above. Following treatment, cells were plated into 0.3% methylcellulose media over agarose and the rate of cell-cell attachment was followed by Hoescht DNA staining. […] Similar results were found in three independent experiments. In FIG. 6B, EpH4-Bcl2 cells suspended over agarose for one hour in DMEM or DMEM containing LA (5 μM), Colchicine (1 μM), or the combination. Reattachment of these cells to either uncoated tissue culture plates or those pre-coated with laminin was followed by XTT cell viability assay. Values represent mean+S.D. of raw XTT values of three separate experiments.
Equivalent numbers of B19 cells were suspended over 6-well plates coated in 2% agarose in serum-free media containing 5 μM Latrunculin-A (LA; BioMol, Plymouth Meeting, Pa.), 100 μM colchicine (Col; Sigma, St. Louis, Mo.), 5 μg/ml nocodazole (Noc), or 1 μg/ml vinblastine (VinB; Sigma) for a duration of 1 hr at 37° C. Cells were collected by centrifugation (1000 rpm×5 min) and drug containing media was aspirated. Cells were resuspended in EpH4 serum-containing growth media and aliquoted out into 24 wells (8 timepoints×3 replicates) of a 96-well clear bottom black plate. After plating, cells were allowed to attach for duration of 15 min, 45 min, 1.5 hr, 2 hr, 3 hr, 4 hr, 5 hr, and 24 hr at which point the media was aspirated from the replicate wells, washed twice in PBS, and fresh growth media was replaced at each timepoint. After 24 hr, all wells were aspirated and cells were incubated in growth media containing Hoescht 33342 (1:5000) for 30 min at 37° C. to label all attached cells. Fluorescence was measured using a Biotek Synergy HT Multi-Detection Microplate Reader (Winooski, Vt.) at excitation wavelength 360 nm and an emission filter of 460 nm followed by subsequent analysis using the KC4 Data Analysis software. The percentage of cell attachment for each treatment exposure was calculated as the RFU at each timepoint divided by the RFU at 24 h (maximum attachment). The standard deviations of triplicates at each timepoint are shown.
To determine if these microtubule protrusions influence the ability of cells to form attachments, the cells were treated with inhibitors of actin or tubulin polymerization and assessed both cell-cell and cell-substratum attachment (FIG. 6). […] Induction of such nonspecific attachment activity in detached mammary epithelial cells could promote tumor cell dissemination, particularly when apoptotic resistance allows this response to continue for extended periods.

## C/C1=C/C(=O)O[C@@H]2C[C@@H](CC[C@H](C)/C=C\C=C\CC1)O[C@@](O)([C@@H]1CSC(=O)N1)C2 [Latrunculin-A]
[1]
  protrusions: enhanced; also recorded: promotes the extension of microtubule protrusions
[2]; EpH4-Bcl2, LA treatment
  total cellular levels of α-tubulin, tyrosinated or acetylated tubulin: remain unaffected
[2]
  cellular levels of Glu-tubulin: did not increase
[2]; listed as LA
  cellular levels of Glu-tubulin: not specifically increased; also recorded: does not significantly increase cellular levels of Glu-tubulin
[3]; EpH4-Bcl2 (B19), 1 hr in suspension with inhibitor, then replated
  attachment of cells to tissue culture surfaces: did not significantly affect attachment
[3]; EpH4-Bcl2 suspended one hour, LA 5 μM, Colchicine 1 μM
  cell-surface attachment to uncoated or laminin-coated plates (XTT): does not affect cell-surface attachment
